Test results published in ChEMBL document CHEMBL5154806, “Synthesis and Profiling of Highly Selective Inhibitors of Methyltransferase DOT1L Based on Carbocyclic C-Nucleosides” (J Med Chem, 2022).
Each block holds one compound with its values, some of them ahead of it. Active and inactive are the calls of the source. No cut-off for these calls is given here.

What was measured:
[1] = biological target: T1, Histone-lysine N-methyltransferase, H3 lysine-79 specific (Homo sapiens, UniProt Q8TEK3); assay: Inhibition of human DOT1L by hotspot PMT activity assay
Target sequence in this assay (Q8TEK3 whole entry): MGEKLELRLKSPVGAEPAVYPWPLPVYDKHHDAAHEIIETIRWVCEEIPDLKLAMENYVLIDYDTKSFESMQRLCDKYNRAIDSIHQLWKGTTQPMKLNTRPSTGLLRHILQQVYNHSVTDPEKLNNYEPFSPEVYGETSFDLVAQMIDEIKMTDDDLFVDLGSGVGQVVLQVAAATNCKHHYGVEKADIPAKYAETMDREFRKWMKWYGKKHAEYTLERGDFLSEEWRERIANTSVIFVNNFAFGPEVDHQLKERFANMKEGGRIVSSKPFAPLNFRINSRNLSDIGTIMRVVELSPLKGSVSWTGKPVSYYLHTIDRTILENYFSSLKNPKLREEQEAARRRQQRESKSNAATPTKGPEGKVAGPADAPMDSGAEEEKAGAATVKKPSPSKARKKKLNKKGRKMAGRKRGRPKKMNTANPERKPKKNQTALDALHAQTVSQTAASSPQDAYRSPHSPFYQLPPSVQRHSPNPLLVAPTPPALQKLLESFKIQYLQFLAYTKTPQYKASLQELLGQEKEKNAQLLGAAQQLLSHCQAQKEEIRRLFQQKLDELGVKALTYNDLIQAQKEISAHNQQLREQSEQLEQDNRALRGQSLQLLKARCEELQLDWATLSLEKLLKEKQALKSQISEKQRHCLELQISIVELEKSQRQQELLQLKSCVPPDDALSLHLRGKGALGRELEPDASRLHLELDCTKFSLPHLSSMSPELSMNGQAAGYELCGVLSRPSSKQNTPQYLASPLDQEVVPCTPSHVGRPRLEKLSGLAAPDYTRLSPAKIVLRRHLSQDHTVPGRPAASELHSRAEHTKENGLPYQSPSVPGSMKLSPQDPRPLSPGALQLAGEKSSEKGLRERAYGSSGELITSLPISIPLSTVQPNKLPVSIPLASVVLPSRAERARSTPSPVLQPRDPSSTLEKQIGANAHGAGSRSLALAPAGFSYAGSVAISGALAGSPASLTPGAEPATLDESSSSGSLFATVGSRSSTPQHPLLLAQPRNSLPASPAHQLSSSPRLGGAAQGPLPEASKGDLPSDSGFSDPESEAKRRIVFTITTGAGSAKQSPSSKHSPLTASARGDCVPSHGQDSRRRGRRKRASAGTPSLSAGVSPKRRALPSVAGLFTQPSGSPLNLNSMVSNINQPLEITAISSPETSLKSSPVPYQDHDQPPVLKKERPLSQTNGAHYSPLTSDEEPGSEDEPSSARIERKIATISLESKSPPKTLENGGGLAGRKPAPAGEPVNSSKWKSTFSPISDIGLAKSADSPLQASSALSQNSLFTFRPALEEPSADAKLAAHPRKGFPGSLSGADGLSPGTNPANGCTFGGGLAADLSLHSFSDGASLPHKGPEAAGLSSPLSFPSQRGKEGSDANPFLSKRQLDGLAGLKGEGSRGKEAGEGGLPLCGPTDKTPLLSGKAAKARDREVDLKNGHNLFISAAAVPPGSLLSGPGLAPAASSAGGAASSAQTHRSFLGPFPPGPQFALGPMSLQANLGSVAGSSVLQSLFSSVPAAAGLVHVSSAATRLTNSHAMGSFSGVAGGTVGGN

[2] = biological target: T1, Histone-lysine N-methyltransferase, H3 lysine-79 specific; assay: Binding affinity to human DOT1L assessed as binding free energy difference
Target sequence in this assay (Q8TEK3 whole entry, looked up): as the sequence (Q8TEK3 whole entry) above

[3] = Clearance in fasted BALB/c mouse at 20 mg/kg, iv administered upto 600 mins by HPLC-MS/MS analysis; type: ADME, organism-based; conditions: in vivo
[4] = AUC (0 to infinity) in fasted BALB/c mouse at 20 mg/kg, iv administered upto 600 mins by HPLC-MS/MS analysis; type: ADME, organism-based; parameters: dose 20 mg/kg, time < 600 min, route iv; conditions: in vivo
[5] = Volume of distribution in fasted BALB/c mouse at 20 mg/kg, iv administered upto 600 mins by HPLC-MS/MS analysis; type: ADME, organism-based; conditions: in vivo
[6] = Elimination rate constant in fasted BALB/c mouse at 20 mg/kg, iv administered upto 600 mins by HPLC-MS/MS analysis; type: ADME, organism-based; conditions: in vivo
[7] = Tmax in fasted BALB/c mouse at 20 mg/kg, po administered upto 600 mins by HPLC-MS/MS analysis; type: ADME, organism-based; conditions: in vivo
[8] = Half life in fasted BALB/c mouse at 20 mg/kg, iv administered upto 600 mins by HPLC-MS/MS analysis; type: ADME, organism-based; conditions: in vivo
[9] = Elimination rate constant in fasted BALB/c mouse at 20 mg/kg, po administered upto 600 mins by HPLC-MS/MS analysis; type: ADME, organism-based; conditions: in vivo
[10] = Half life in fasted BALB/c mouse at 20 mg/kg, po administered upto 600 mins by HPLC-MS/MS analysis; type: ADME, organism-based; conditions: in vivo
[11] = Tmax in fasted BALB/c mouse at 20 mg/kg, iv administered upto 600 mins by HPLC-MS/MS analysis; type: ADME, organism-based; conditions: in vivo
[12] = Cmax in fasted BALB/c mouse at 20 mg/kg, po administered upto 600 mins by HPLC-MS/MS analysis; type: ADME, organism-based; parameters: time < 600 min, dose 20 mg/kg, route po; conditions: in vivo
[13] = Cmax in fasted BALB/c mouse at 20 mg/kg, iv administered upto 600 mins by HPLC-MS/MS analysis; type: ADME, organism-based; parameters: time < 600 min, dose 20 mg/kg, route iv; conditions: in vivo
[14] = AUC (0 to t) in fasted BALB/c mouse at 20 mg/kg, po administered upto 600 mins by HPLC-MS/MS analysis; type: ADME, organism-based; parameters: dose 20 mg/kg, time < 600 min, route po; conditions: in vivo
[15] = AUC (0 to t) in fasted BALB/c mouse at 20 mg/kg, iv administered upto 600 mins by HPLC-MS/MS analysis; type: ADME, organism-based; parameters: dose 20 mg/kg, time < 600 min, route iv; conditions: in vivo
[16] = AUC (0 to infinity) in fasted BALB/c mouse at 20 mg/kg, po administered upto 600 mins by HPLC-MS/MS analysis; type: ADME, organism-based; parameters: dose 20 mg/kg, time < 600 min, route po; conditions: in vivo
[17] = Bioavailability in fasted BALB/c mouse at 20 mg/kg, iv administered upto 600 mins by HPLC-MS/MS analysis; type: ADME, organism-based; conditions: in vivo
[18] = Acute toxicity in BALB/c mouse assessed as mild tremor at 5 mg/kg,iv measured after 6 to 7 mins; type: organism-based; conditions: in vivo, time 6-7 min
MOLM-13 [19] = assay: Cytotoxicity against human MOLM-13 cells assessed as metabolic activity at 1 to 40 uM incubated for 5 to 15 days by WST-1 assay; type: functional, cell-based; conditions: dose 1-40 µM, time 5-15 day
[20] = Acute toxicity in BALB/c mouse assessed as respiratory failure at 5 mg/kg,iv measured after 6 to 7 mins; type: organism-based; conditions: in vivo, time 6-7 min
[21] = Acute toxicity in BALB/c mouse at 10 to 20 mg/kg,iv; type: organism-based; conditions: in vivo, dose 10-20 mg/kg
OCI-AML-3 [22] = assay: Cytotoxicity against human OCI-AML-3 cells assessed as reduction of cell viability at 1 to 40 uM incubated for 5 to 15 days by DiOC6/ propidium staining based flow cytometry analysis; type: functional; conditions: dose 1-40 µM, time 5-15 day
[23] = biological target: T1, Histone-lysine N-methyltransferase, H3 lysine-79 specific; assay: Inhibition of DOT1L in human OCI-AML5 cells assessed as decrease in H3K79 methylation at 1 to 10 uM using histone H3 as substrate incubated for 5 days by immunoblotting assay; type: cell-based; conditions: dose 1-10 µM, time 5.0 day, DDE = dose-dependent effect
Target sequence in this assay (Q8TEK3 whole entry, looked up): as the sequence (Q8TEK3 whole entry) above

[24] = AUC (0 to t) in fasted BALB/c mouse at 5 mg/kg, iv administered upto 600 mins by HPLC-MS/MS analysis; type: ADME, organism-based; parameters: time < 600 min, dose 5 mg/kg, route iv; conditions: in vivo
[25] = Clearance in fasted BALB/c mouse at 5 mg/kg, iv administered upto 600 mins by HPLC-MS/MS analysis; type: ADME, organism-based; conditions: in vivo
[26] = Volume of distribution in fasted BALB/c mouse at 5 mg/kg, iv administered upto 600 mins by HPLC-MS/MS analysis; type: ADME, organism-based; conditions: in vivo
OCI-AML-3 [27] = assay: Cytotoxicity against human OCI-AML-3 cells assessed as reduction of cell viability at 1 to 40 uM incubated for 5 to 15 days by WST-1 assay; type: functional, cell-based; conditions: dose 1-40 µM, time 5-15 day
[28] = biological target: T1, Histone-lysine N-methyltransferase, H3 lysine-79 specific; assay: Inhibition of DOT1L in human MOLM-13 cells assessed as decrease in H3K79 methylation at 1 to 10 uM using histone H3 as substrate incubated for 5 days by immunoblotting assay; type: cell-based; conditions: dose 1-10 µM, time 5.0 day, DDE = dose-dependent effect
Target sequence in this assay (Q8TEK3 whole entry, looked up): as the sequence (Q8TEK3 whole entry) above

[29] = biological target: T1, Histone-lysine N-methyltransferase, H3 lysine-79 specific; assay: Inhibition of DOT1L in human OCI-AML5 cells assessed as decrease in H3K79 methylation at 1 to 10 uM using histone H3 as substrate incubated for 3 days by immunoblotting assay; type: cell-based; conditions: dose 1-10 µM, time 3.0 day, DDE = dose-dependent effect
Target sequence in this assay (Q8TEK3 whole entry, looked up): as the sequence (Q8TEK3 whole entry) above

[30] = Half life in fasted BALB/c mouse at 5 mg/kg, iv administered upto 600 mins by HPLC-MS/MS analysis; type: ADME, organism-based; conditions: in vivo, iv, 5 mg/kg, 10 h
[31] = Elimination rate constant in fasted BALB/c mouse at 5 mg/kg, iv administered upto 600 mins by HPLC-MS/MS analysis; type: ADME, organism-based; conditions: in vivo, iv, 5 mg/kg, 10 h
[32] = biological target: T1, Histone-lysine N-methyltransferase, H3 lysine-79 specific; assay: Inhibition of DOT1L in human SU-DHL-4 cells assessed as decrease in H3K79 methylation at 1 to 10 uM using histone H3 as substrate incubated for 3 days by immunoblotting assay; type: cell-based; conditions: dose 1-10 µM, time 3.0 day, DDE = dose-dependent effect
Target sequence in this assay (Q8TEK3 whole entry, looked up): as the sequence (Q8TEK3 whole entry) above

[33] = biological target: T1, Histone-lysine N-methyltransferase, H3 lysine-79 specific; assay: Inhibition of DOT1L in human SU-DHL-4 cells assessed as decrease in H3K79 methylation at 1 to 10 uM using histone H3 as substrate incubated for 5 days by immunoblotting assay; type: cell-based; conditions: dose 1-10 µM, time 5.0 day, DDE = dose-dependent effect
Target sequence in this assay (Q8TEK3 whole entry, looked up): as the sequence (Q8TEK3 whole entry) above

[34] = biological target: T1, Histone-lysine N-methyltransferase, H3 lysine-79 specific; assay: Inhibition of DOT1L in human MOLM-13 cells assessed as decrease in H3K79 methylation at 1 to 10 uM using histone H3 as substrate incubated for 3 days by immunoblotting assay; type: cell-based; conditions: dose 1-10 µM, time 3.0 day, DDE = dose-dependent effect
[35] = Cmax in fasted BALB/c mouse at 5 mg/kg, iv administered upto 600 mins by HPLC-MS/MS analysis; type: ADME, organism-based; parameters: time < 600 min, dose 5 mg/kg, route iv; conditions: in vivo
[36] = Tmax in fasted BALB/c mouse at 5 mg/kg, iv administered upto 600 mins by HPLC-MS/MS analysis; type: ADME, organism-based; conditions: in vivo
[37] = AUC (0 to infinity) in fasted BALB/c mouse at 5 mg/kg, iv administered upto 600 mins by HPLC-MS/MS analysis; type: ADME, organism-based; parameters: dose 5 mg/kg, time < 600 min, route iv; conditions: in vivo
[38] = Acute toxicity in BALB/c mouse assessed as death at 10 to 20 mg/kg,iv; type: organism-based; conditions: in vivo, dose 10-20 mg/kg
MOLM-13 [39] = assay: Cytotoxicity against human MOLM-13 cells assessed as reduction of cell viability at 1 to 40 uM incubated for 5 to 15 days by DiOC6/ propidium staining based flow cytometry analysis; type: functional; conditions: dose 1-40 µM, time 5-15 day

SMILES: CN(CCCNC(=O)Nc1ccc(C(C)(C)C)cc1)C[C@H]1C[C@@H](c2ccc3c(N)ncnn23)[C@H](O)[C@@H]1O (stereo in doubt; (+)-25)
- IC50 [1]: 7.41 µM

SMILES: CC(C)N(C[C@H]1C[C@@H](c2ccc3c(N)ncnn23)[C@H](O)[C@@H]1O)[C@H]1C[C@H](CCc2nc3cc(C(C)(C)C)ccc3[nH]2)C1 (racemic)
- IC50 [1]: 0.0138 µM

SMILES: CN(CCCNC(=O)Nc1ccccc1)C[C@H]1C[C@@H](c2ccc3c(N)ncnn23)[C@@H](O)[C@@H]1O
- deltaG [2]: 16 kJ/mol

SMILES: CC(C)N(C[C@H]1O[C@@H](n2cnc3c(N)ncnc32)[C@H](O)[C@@H]1O)[C@H]1C[C@@H](CCc2nc3cc(C(C)(C)C)ccc3[nH]2)C1 [PINOMETOSTAT]
- Activity [18]: Toxic
- Activity (MOLM-13 [19]): Active
- Activity [20]: Toxic
- Activity [21]: Toxic
- Activity (OCI-AML-3 [22]): Active
- Activity [23]: Dde
- AUC(0-t) at 10 h [24]: 4830 ng·h/mL
- clearance [25]: 17.1 mL/min/kg
- Vd [26]: 1.07 L/kg
- Tmax [7]: 0.0833 h
- Activity (OCI-AML-3 [27]): Active
- Activity [28]: Dde
- Activity [29]: Dde
- t1/2 [30]: 43.2 min
- Cmax [12]: 15.9 ng/mL
- Kel [31]: 0.00161 min⁻¹
- Activity [32]: Dde
- Activity [33]: Dde
- AUC(0-t) at 10 h [14]: 0.662 ng·h/mL
- Activity [34]: Dde
- Cmax [35]: 13900 ng/mL
- Tmax [36]: 5 min
- AUC(0-inf) [37]: 4870 ng·h/mL
- Activity [38]: Toxic
- Activity (MOLM-13 [39]): Active

Next, values leading:

- IC50 [1]: > 10 µM
SMILES: CC(C)N(CCCNC(=O)NC12CC3CC(CC(C3)C1)C2)C[C@H]1C[C@@H](c2ccc3c(N)ncnn23)[C@H](O)[C@@H]1O

- clearance [3]: 46 mL/min/kg
- AUC(0-inf) [4]: 7250 ng·h/mL
- Vd [5]: 4.43 L/kg
- k el at 10 h [6]: 0.000173 s⁻¹
- Tmax [7]: 2 h
- half-life [8]: 66.7 min
- k el at 10 h [9]: 0.000457 s⁻¹
- half-life [10]: 25.3 min
- Tmax [11]: 5 min
- Cmax [12]: 645 ng/mL
- Cmax [13]: 18400 ng/mL
- AUC(0-t) at 10 h [14]: 830 ng·h/mL
- AUC(0-t) at 10 h [15]: 7170 ng·h/mL
- AUC(0-inf) [16]: 845 ng·h/mL
- bioavailability [17]: 12%
SMILES: CC(C)NC[C@@H]1C[C@H](c2ccc3c(N)ncnn23)[C@@H](O)[C@H]1O

- IC50 [1]: 0.369 µM
SMILES: CN(CCCNC(=O)Nc1ccccc1)C[C@H]1C[C@@H](c2ccc3c(N)ncnn23)[C@H](O)[C@@H]1O

- clearance [3]: 23.3 mL/min/kg
- AUC(0-inf) [4]: 14200 ng·h/mL
- Vd [5]: 3.88 L/kg
- k el at 10 h [6]: 0.0001 s⁻¹
- Tmax [7]: 2 h
- half-life [8]: 115 min
- k el at 10 h [9]: 0.000257 s⁻¹
- half-life [10]: 44.9 min
- Tmax [11]: 5 min
- Cmax [12]: 561 ng/mL
- Cmax [13]: 40800 ng/mL
- AUC(0-t) at 10 h [14]: 1200 ng·h/mL
- AUC(0-t) at 10 h [15]: 14200 ng·h/mL
- AUC(0-inf) [16]: 1300 ng·h/mL
- bioavailability [17]: 9%
SMILES: CC(C)NC[C@H]1C[C@@H](c2ccc3c(N)ncnn23)[C@H](O)[C@@H]1O

- IC50 [1]: > 10 µM
SMILES: Nc1ncnn2c([C@@H]3C[C@H](CO)[C@@H](O)[C@H]3O)ccc12
